The values below come from patent publication US20230349907A1, “BIOPROBES FOR LYSYL OXIDASES AND USES THEREOF” (Pharmaxis Ltd., priority 2020, published 2023).

Where a name gives a salt, the structure may show the parent alone.

One assay concerns the target rhLOXL2 (Homo sapiens (Human), UniProt Q9Y4K0). The assay can be described thus: LOXL2 inhibition, peroxidase-coupled Amplex Red assay. Conditions: 30 min preincubation at 37° C. The class given is biochemical. From the text:
(§1) Method to Determine the Ability of Compounds of the Invention to Inhibit LOX and LOXL1-4 from Different Sources […] S., Trackman P. C. and Kagan H. M., Reaction of aortic lysyl oxidase with beta-aminoproprionitrile. J Biol Chem 1983; 258: 4331-4338). There are five LOX family members; these are LOX, LOXL1, LOXL2, LOXL3 and LOXL4. LOX and LOXL family members can be acquired as recombinant active proteins from commercial sources, or extracted from animal tissues like bovine aorta, tendons, pig skin; or prepared from cell cultures. The inhibitory effects of the compounds of the present invention were tested against the given LOX-LOXL preparation using a high-throughput coupled colorimetric method (Holt A. and Palcic M., A peroxidase-coupled continuous absorbance plate-reader assay for flavin monoamine oxidases, copper-containing amine oxidases and related enzymes. Nat. Protoc. 2006; 1: 2498-2505). The assay was developed using either 384 or 96 well format. […] Test compounds were dissolved in DMSO and tested in a Concentration Response Curve (CRC) with 11 data points, typically in the micromolar or nanomolar range after incubation with the enzyme for 30 min at 37° C. 25 μL of a reaction mixture containing twice the KM concentration of putrescine (Sigma Aldrich, e.g. 20 mM for LOX, or 10 mM for LOXL2 and LOXL3), 120 μM Amplex Red (Sigma Aldrich) and 1.5 U/mL horseradish peroxidase (Sigma Aldrich) prepared in 1.2 M urea, 50 mM sodium borate buffer (pH 8.2) were then added to the corresponding wells. The above volumes were doubled in the case of 96 well plates. The fluorescence (RFU) was read every 2.5 m n for 30 m u […], excitation 565 nm and emission 590 nm (Optima; BMG labtech). The slope of the kinetics for each well was calculated using MARS data analysis software (BMG labtech) and this value was used to deduce the IC50 value (Dotmatics).

The next assay concerns the target Bovine LOX (Bos taurus (Bovine), UniProt P33072). The assay can be described thus: LOX inhibition, peroxidase-coupled Amplex Red assay. The class given is biochemical. As to conditions: 30 min preincubation at 37° C.
Description: as §1

Chain of rhLOXL2 (Q9Y4K0 26-774): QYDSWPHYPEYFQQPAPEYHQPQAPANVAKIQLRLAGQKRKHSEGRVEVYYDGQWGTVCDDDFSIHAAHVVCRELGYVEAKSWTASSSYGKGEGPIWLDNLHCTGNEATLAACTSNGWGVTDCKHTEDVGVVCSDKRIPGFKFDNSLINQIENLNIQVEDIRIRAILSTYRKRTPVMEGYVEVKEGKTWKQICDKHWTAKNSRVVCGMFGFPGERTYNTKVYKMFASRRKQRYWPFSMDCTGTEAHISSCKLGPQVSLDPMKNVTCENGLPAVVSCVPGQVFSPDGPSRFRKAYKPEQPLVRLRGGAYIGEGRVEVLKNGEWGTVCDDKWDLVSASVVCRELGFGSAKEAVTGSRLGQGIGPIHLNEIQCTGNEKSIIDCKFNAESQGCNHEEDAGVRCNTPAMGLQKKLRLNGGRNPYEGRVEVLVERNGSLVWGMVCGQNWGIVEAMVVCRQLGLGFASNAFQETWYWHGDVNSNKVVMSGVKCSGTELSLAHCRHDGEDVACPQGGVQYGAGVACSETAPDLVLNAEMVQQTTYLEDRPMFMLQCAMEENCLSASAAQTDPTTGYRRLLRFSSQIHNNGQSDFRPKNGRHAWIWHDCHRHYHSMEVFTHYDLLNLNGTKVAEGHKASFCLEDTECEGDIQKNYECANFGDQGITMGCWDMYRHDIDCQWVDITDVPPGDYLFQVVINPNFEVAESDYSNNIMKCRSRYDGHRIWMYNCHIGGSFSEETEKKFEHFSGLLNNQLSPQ
Chain of Bovine LOX (P33072 170-418): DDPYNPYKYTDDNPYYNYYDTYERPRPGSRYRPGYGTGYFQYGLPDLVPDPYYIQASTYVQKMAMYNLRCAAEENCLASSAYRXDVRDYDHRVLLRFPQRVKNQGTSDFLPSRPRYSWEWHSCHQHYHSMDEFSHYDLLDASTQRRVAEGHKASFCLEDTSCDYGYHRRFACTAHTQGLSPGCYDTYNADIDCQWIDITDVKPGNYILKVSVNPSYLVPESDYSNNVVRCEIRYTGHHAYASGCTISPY

For orientation: IC50 means the midpoint of a concentration-inhibition curve. Low values mean greater potency, high ones weaker potency. As for `Cc1c(-c2cccc(S(=O)(=O)N(C)C)c2)c2cc(C(=O)NCCCCCNC(=O)CCCC[C@@H]3SC[C@@H]4NC(=O)N[C@@H]43)ccc2n1C/C(F)=C/CN` [Compound 1-2, 1-((Z)-4-amino-2-fluorobut-2-en-1-yl)-3-(3-(N,N-dimethylsulfamoyl)phenyl)-2-methyl-N-(5-(5-((3aS,4S,6aR)-2-oxohexahydro-1H-thieno[3,4-d]imidazol-4-yl)pentanamido)pentyl)-1H-indole-5-carboxamide], the concentration for half-maximal inhibition (IC50) against rhLOXL2 was below 300 nM; on Bovine LOX, above 300 nM.

On to `Cc1c(-c2cccc(S(=O)(=O)N(C)C)c2)c2cc(C(=O)Nc3ccc4c(c3)n(Cc3cn(CCOCCOCCOCCNC(=O)CCCC[C@@H]5SC[C@@H]6NC(=O)N[C@@H]65)nn3)c(=O)n4Cc3cn(CCOCCOCCOCCNC(=O)CCCC[C@@H]4SC[C@@H]5NC(=O)N[C@@H]54)nn3)ccc2n1C/C(F)=C/CN` [Compound 1-3, hydrochloride], for which the half-maximal inhibitory concentration (IC50) is below 300 nM against rhLOXL2 and above 300 nM at Bovine LOX.

In the case of `Cc1c(-c2cccc(S(=O)(=O)N(C)C)c2)c2cc(C(=O)Nc3ccc4c(c3)n(CCn3cc(CCNC(=O)CCCC[C@@H]5SC[C@@H]6NC(=O)N[C@@H]65)nn3)c(=O)n4CCn3cc(CCNC(=O)CCCC[C@@H]4SC[C@@H]5NC(=O)N[C@@H]54)nn3)ccc2n1C/C(F)=C/CN` [Compound 1-4, N,N′-((((5-(1-((Z)-4-amino-2-fluorobut-2-en-1-yl)-3-(3-(N,N-dimethylsulfamoyl)phenyl)-2-methyl-1H-indole-5-carboxamido)-2-oxo-1H-benzo[d]imidazole-1,3(2H)-diyl)bis(ethane-2,1-diyl))bis(1H-1,2,3-triazole-1,4-diyl))bis(ethane-2,1-diyl))bis(5-((3aS,4S,6aR)-2-oxohexahydro-1H-thieno[3,4-d]imidazol-4-yl)pentanamide) hydrochloride], the IC50 on rhLOXL2 is below 300 nM; against Bovine LOX, above 300 nM.

On to `Cc1c(-c2cccc(S(=O)(=O)N(C)C)c2)c2cc(C(=O)Nc3cc(C(=O)NCCCCCNC(=O)CCCC[C@@H]4SC[C@@H]5NC(=O)N[C@@H]54)cc(C(=O)NCCCCCNC(=O)CCCC[C@@H]4SC[C@@H]5NC(=O)N[C@@H]54)c3)ccc2n1C/C(F)=C/CN` [Compound 1-5, 5-(1-((Z)-4-amino-2-fluorobut-2-en-1-yl)-3-(3-(N,N-dimethylsulfamoyl)phenyl)-2-methyl-1H-indole-5-carboxamido)-N^1,N^3-bis(5-(5-((3aS,4S,6aR)-2-oxohexahydro-1H-thieno[3,4-d]imidazol-4-yl)pentanamido)pentyl)isophthalamide hydrochloride], for which the results for the IC50 at rhLOXL2 and on Bovine LOX were below 300 nM and above 300 nM, respectively.

Regarding `Cc1c(-c2cccc(S(=O)(=O)N(C)C)c2)c2cc(-c3cn(-c4cc(C(=O)NCCCCCNC(=O)CCCC[C@@H]5SC[C@@H]6NC(=O)N[C@@H]65)cc(C(=O)NCCCCCNC(=O)CCCC[C@@H]5SC[C@@H]6NC(=O)N[C@@H]65)c4)nn3)ccc2n1C/C(F)=C/CN` [Compound 1-6, 5-(4-(1-((Z)-4-amino-2-fluorobut-2-en-1-yl)-3-(3-(N,N-dimethylsulfamoyl)phenyl)-2-methyl-1H-indol-5-yl)-1H-1,2,3-triazol-1-yl)-N^1,N^3-bis(5-(5-((3aS,4S,6aR)-2-oxohexahydro-1H-thieno[3,4-d]imidazol-4-yl)pentanamido)pentyl)isophthalamide hydrochloride], the half-maximal inhibitory concentration (IC50) on rhLOXL2 is below 300 nM; at Bovine LOX it was above 300 nM.

As for `NC/C=C(\F)CS(=O)(=O)c1ccc(C(=O)NCc2cn(CCOCCOCCOCCNC(=O)CCCC[C@@H]3SC[C@@H]4NC(=O)N[C@@H]43)nn2)cc1` [Compound 1-7, 4-(((Z)-4-amino-2-fluorobut-2-en-1-yl)sulfonyl)-N-((1-(13-oxo-17-((3aS,4S,6aR)-2-oxohexahydro-1H-thieno[3,4-d]imidazol-4-yl)-3,6,9-trioxa-12-azaheptadecyl)-1H-1,2,3-triazol-4-yl)methyl)benzamide hydrochloride], the half-maximal inhibitory concentration (IC50) against rhLOXL2 and at Bovine LOX was above 300 nM in each case.
